{"source": "paper PMC4583449", "about": "“Characterisation of (R)-2-(2-Fluorobiphenyl-4-yl)-N-(3-Methylpyridin-2-yl)Propanamide as a Dual Fatty Acid Amide Hydrolase: Cyclooxygenase Inhibitor” (PLoS ONE, 2015)", "type_in_all_cases": "biochemical", "key": {"[1]": {"biological_target": "T1, mouse brain FAAH (Mus musculus, UniProt O08914)", "T1 construct": "Brains from male B6CBAF1/J mice, stored at -80°C, were thawed, weighed and homogenized in cold buffer; from tissue; host or cells: brain of male B6CBAF1/J mice (washed membrane pellet homogenate)", "T1 sequence (O08914 1-579)": "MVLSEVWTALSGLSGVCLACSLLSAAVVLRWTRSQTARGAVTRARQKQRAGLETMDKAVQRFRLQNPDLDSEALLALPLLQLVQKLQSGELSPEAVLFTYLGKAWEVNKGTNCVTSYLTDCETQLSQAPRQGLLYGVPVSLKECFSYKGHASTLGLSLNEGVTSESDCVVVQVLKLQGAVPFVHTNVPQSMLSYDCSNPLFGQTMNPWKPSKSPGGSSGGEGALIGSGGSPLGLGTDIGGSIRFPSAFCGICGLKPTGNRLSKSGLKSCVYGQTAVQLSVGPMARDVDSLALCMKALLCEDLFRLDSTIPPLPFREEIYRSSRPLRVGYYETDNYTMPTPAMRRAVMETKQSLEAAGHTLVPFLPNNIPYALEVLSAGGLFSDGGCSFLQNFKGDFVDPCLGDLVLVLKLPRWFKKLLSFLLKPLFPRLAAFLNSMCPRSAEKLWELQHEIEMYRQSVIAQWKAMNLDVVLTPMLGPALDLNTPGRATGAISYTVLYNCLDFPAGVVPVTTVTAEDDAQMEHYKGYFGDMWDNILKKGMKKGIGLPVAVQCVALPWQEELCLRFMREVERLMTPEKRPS", "test": "FAAH assay, [3H]AEA hydrolysis in mouse brain homogenates", "procedure": "Brains from male B6CBAF1/J mice, stored at -80°C, were thawed, weighed and homogenized in cold buffer (20 mM HEPES, 1 mM MgCl2 pH 7.0). Homogenates were centrifuged (35,000 g at 4°C for 20 min) before the pellet was resuspended in cold homogenization buffer. Centrifugation and resuspension was repeated twice. The suspension was incubated at 37°C for 15 min to degrade any endogenous substrate able to interfere with the FAAH assay. After centrifugation (35,000 g at 4°C for 20 min), the pellet was resuspended in cold buffer (50 mM Tris-HCl, 1mM EDTA, 3 mM MgCl2, pH 7.4). The protein concentration was determined according to the Bradford assay after which the samples were frozen in aliquots at -80°C. Ethical permission for the animal experiments was obtained from the local animal research ethical committee (Umeå Ethical Committee for Animal Research, Umeå, Sweden). FAAH was assayed using the method of Boldrup et al., whereby homogenates (0.3 μg protein / assay) in assay buffer (10 mM Tris-HCl, 1mM EDTA, pH 7.4), test compounds and substrate ([^3H]AEA in 10 mM Tris-HCl, 1mM EDTA, pH 7.4 containing 10 mg/ml fatty acid-free bovine serum, assay concentration 0.5 μM unless otherwise stated) were incubated for 10 min at 37°C. Thereafter, 400 μL activated charcoal (80 μL activated charcoal + 320 μL 0.5 M HCl) was added and the samples were placed on ice and centrifuged at 2500 rpm for 10 min. Aliquots (200 μL) of the supernatant was analyzed for tritium content by liquid scintillation spectroscopy with quench correction."}, "[2]": {"biological_target": "T2, human recombinant COX-2 (Homo sapiens, UniProt P35354)", "T2 construct": "purchased Cayman Chemical Co. 60122", "T2 sequence (P35354 18-604)": "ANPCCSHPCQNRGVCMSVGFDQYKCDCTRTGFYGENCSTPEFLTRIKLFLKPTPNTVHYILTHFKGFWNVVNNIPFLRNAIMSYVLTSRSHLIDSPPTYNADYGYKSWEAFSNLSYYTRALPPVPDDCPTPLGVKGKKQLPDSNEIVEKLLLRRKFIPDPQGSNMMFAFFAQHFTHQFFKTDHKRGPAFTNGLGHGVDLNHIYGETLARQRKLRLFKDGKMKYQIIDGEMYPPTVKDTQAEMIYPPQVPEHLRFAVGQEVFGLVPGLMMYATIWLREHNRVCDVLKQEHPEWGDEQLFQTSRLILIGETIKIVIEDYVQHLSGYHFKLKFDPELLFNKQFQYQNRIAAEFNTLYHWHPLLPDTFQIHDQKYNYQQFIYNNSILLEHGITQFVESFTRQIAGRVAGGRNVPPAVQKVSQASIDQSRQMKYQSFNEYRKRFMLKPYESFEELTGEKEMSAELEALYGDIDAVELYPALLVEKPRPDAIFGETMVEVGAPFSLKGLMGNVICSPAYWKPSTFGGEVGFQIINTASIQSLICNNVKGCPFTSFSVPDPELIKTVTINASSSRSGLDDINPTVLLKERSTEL", "test": "COX-2 inhibition, oxygraphic method (oxygen electrode)", "conditions": "no preincubation phase, approximate, from initial velocities", "procedure": "(§1) The assay was performed according to Meade et al. with minor modifications. An oxygen electrode chamber with integral stirring (Oxygraph System, Hansatech Instruments, King´s Lynn, U.K.) was calibrated daily to ambient temperature and air pressure. The assay buffer contained 0.1 M Tris-HCl buffer pH 7.4, 1 μM haematin, 2 mM phenol, 5 mM EDTA, 10 μM substrate (arachidonic acid or 2-AG) (final assay volume was 2 ml). After addition of (R)- or (S)-Flu-AM1 dissolved in ethanol (final assay concentration 1%), a baseline was established for 5 min before initiation of reaction by addition of 200 units ovine COX-1 or human recombinant COX-2. The change in oxygen consumption as a measurement of enzyme activity was monitored for approximately 5 min."}, "[3]": {"biological_target": "T3, ovine COX-1 (Ovis aries, UniProt P05979)", "T3 construct": "purchased Cayman Chemical Co. 60100", "T3 sequence (P05979 25-600)": "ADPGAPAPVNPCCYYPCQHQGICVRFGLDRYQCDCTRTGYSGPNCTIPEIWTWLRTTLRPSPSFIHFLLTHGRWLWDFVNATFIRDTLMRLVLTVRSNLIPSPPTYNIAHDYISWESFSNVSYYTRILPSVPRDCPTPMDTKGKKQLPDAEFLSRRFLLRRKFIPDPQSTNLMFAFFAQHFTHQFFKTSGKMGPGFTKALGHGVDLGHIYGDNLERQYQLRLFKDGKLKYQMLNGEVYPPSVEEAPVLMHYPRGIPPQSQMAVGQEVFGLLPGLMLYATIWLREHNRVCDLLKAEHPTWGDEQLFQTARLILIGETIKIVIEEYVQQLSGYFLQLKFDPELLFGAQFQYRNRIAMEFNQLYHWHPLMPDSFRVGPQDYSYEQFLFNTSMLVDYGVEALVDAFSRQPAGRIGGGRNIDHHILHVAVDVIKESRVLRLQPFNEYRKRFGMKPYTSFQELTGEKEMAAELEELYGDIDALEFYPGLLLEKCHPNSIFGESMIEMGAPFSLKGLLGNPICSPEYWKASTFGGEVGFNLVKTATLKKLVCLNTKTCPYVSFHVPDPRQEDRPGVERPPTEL", "test": "COX-1 inhibition, oxygraphic method (oxygen electrode)", "conditions": "10 μM arachidonic acid; no preincubation phase; approximate, from initial velocities", "procedure": "as §1"}}, "note": "Values joined by “and” are separate entries in the source; they are usually repeats but may differ in a detail not shown here. Identical values can stand only once. Like-named read-outs stand apart in the source and are kept apart here."}
{"smiles": "Cc1cccnc1NC(=O)[C@H](C)c1ccc(-c2ccccc2)c(F)c1", "note": "[(R)-Flu-AM1, (R)-2-(2-Fluorobiphenyl-4-yl)-N-(3-Methylpyridin-2-yl)Propanamide]", "values": [{"measurement": "IC50", "setting": "[1]; 0.5 μM [3H]AEA, read-out: IC50 inhibition of [3H]AEA hydrolysis in mouse brain homogenates", "result": 8.8, "unit": "µM"}, {"measurement": "Ki", "setting": "[1]; Dixon replot of mean kinetic data, 1–8 μM [3H]AEA, read-out: Ki FAAH (Dixon plot)", "result": 19, "unit": "µM"}, {"measurement": "Mode of FAAH inhibition", "setting": "[1]; kinetic experiments, 1–8 μM [3H]AEA", "result": "competitive inhibitor"}, {"measurement": "Ki", "setting": "[1]; kinetic experiments, 1–8 μM [3H]AEA, read-out: Ki FAAH (competitive model fit)", "result": "20 ± 8", "unit": "µM"}, {"measurement": "IC50", "setting": "[2]; 10 μM 2-AG, read-out: IC50 COX-2 (2-AG)", "result": "1 µM and ~1 µM"}, {"measurement": "IC50", "setting": "[2]; 10 μM arachidonic acid, read-out: IC50 COX-2 (arachidonic acid)", "result": "20 µM and ~20 µM"}, {"measurement": "IC50", "setting": "[3]", "result": "6 µM and ~6 µM"}]}
